Drawing on US12291519B2, “2-hydroxycycloalkane-1-carbamoyl” (Idorsia Pharmaceuticals Ltd, priority 2019, dated 2025), this text covers IC50 for 15 compounds.

As a reminder, the IC50 is the point on the concentration scale where inhibition reaches its midpoint.

Each structure is given as a SMILES string.

In one test the target is human Gal-3 (hGal-3) (Homo sapiens (Human), UniProt P17931). As to the kind of experiment: Competitive binding assay: biotinylated hGal-3 binding to microplate-adsorbed asialofetuin (ASF). The note with it: Activity on hGal-3; binding of biotinylated hGal-3 to ASF-coated plates; mean values. In short, it runs like this:
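Serially diluted compounds competed with biotinylated human Gal-3 for binding to plate-adsorbed asialofetuin over 3 h at 4 °C. Bound Gal-3 was detected with streptavidin-peroxidase (80 ng/mL, 1 h, 4 °C) and ABTS substrate. IC50 values are means of several measurements.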

The next test has as its target human Gal-1 (hGal-1). Kind of test: Competitive binding assay: biotinylated hGal-1 binding to microplate-adsorbed asialofetuin (ASF). The note with it: Activity on hGal-1; binding of biotinylated hGal-1 to ASF-coated plates; mean values. In short, it runs like this:
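Biotinylated hGal-1 (300–1000 ng/mL; optionally a cysteine-free all-serine variant) incubated 3 h at 4 °C with compound on asialofetuin-coated plates, then streptavidin-peroxidase 1 h at 4 °C. ABTS readout at OD 410 nm after 30–45 min; IC50 given as mean of several runs.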

Sequence of human Gal-1 (hGal-1) (P09382 2-135 limits assumed): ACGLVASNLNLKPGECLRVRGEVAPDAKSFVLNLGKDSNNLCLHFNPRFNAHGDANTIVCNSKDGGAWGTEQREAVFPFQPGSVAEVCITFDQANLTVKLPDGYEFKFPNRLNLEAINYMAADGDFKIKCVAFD
Sequence of human Gal-3 (hGal-3) (P17931 whole entry): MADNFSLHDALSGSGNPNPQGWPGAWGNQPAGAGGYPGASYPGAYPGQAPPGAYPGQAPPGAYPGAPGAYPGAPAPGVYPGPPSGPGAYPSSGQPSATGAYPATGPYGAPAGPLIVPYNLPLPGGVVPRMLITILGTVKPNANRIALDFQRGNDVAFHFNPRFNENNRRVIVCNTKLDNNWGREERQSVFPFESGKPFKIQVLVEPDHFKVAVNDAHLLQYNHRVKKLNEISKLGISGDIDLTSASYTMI

Regarding `CO[C@@H]1[C@@H](n2cc(-c3cc(F)c(F)c(F)c3)nn2)[C@@H](O)[C@@H](CO)O[C@H]1C(=O)N(Cc1cc(C)nn1C)[C@H]1CCCC[C@@H]1O` [Example 47, (2R,3R,4S,5R,6R)-N-((1,3-dimethyl-1H-pyrazol-5-yl)methyl)-5-hydroxy-N-((1S,2S)-2-hydroxycyclohexyl)-6-(hydroxymethyl)-3-methoxy-4-(4-(3,4,5-trifluorophenyl)-1H-1,2,3-triazol-1-yl)tetrahydro-2H-pyran-2-carboxamide], the IC50 at human Gal-3 (hGal-3) is 151 nM; on human Gal-1 (hGal-1), 1040 nM.

As to `CO[C@@H]1[C@@H](n2cc(-c3cc(F)c(F)c(F)c3)nn2)[C@@H](O)[C@@H](CO)O[C@H]1C(=O)N(Cc1cc2ccccc2n1C)[C@H]1CCCC[C@@H]1O` [Example 48, (2R,3R,4S,5R,6R)-5-hydroxy-N-((1S,2S)-2-hydroxycyclohexyl)-6-(hydroxymethyl)-3-methoxy-N-((1-methyl-1H-indol-2-yl)methyl)-4-(4-(3,4,5-trifluorophenyl)-1H-1,2,3-triazol-1-yl)tetrahydro-2H-pyran-2-carboxamide], the 50% inhibitory concentration (IC50) was determined as 344 nM at human Gal-3 (hGal-3) and 2240 nM at human Gal-1 (hGal-1).

Take `CC(=O)O[C@@H]1[C@@H](n2cc(-c3cc(F)cc(F)c3)nn2)[C@@H](O)[C@@H](CO)O[C@H]1C(=O)N(Cc1ccnn1C)[C@H]1CCCC[C@@H]1O` [Example 49, (2R,3R,4S,5R,6R)-4-(4-(3,5-difluorophenyl)-1H-1,2,3-triazol-1-yl)-5-hydroxy-2-(((1S,2S)-2-hydroxycyclohexyl)((1-methyl-1H-pyrazol-5-yl)methyl)carbamoyl)-6-(hydroxymethyl)tetrahydro-2H-pyran-3-yl acetate]: the IC50 at human Gal-3 (hGal-3) was 129 nM; on human Gal-1 (hGal-1) it was 1940 nM.

With `CC(=O)O[C@@H]1[C@@H](n2cc(-c3cc(F)c(Cl)c(F)c3)nn2)[C@@H](O)[C@@H](CO)O[C@H]1C(=O)N(Cc1ccnn1C)[C@H]1CCCC[C@@H]1O` [Example 50, (2R,3R,4S,5R,6R)-4-(4-(4-chloro-3,5-difluorophenyl)-1H-1,2,3-triazol-1-yl)-5-hydroxy-2-(((1S,2S)-2-hydroxycyclohexyl)((1-methyl-1H-pyrazol-5-yl)methyl)carbamoyl)-6-(hydroxymethyl)tetrahydro-2H-pyran-3-yl acetate], the results for the IC50 at human Gal-3 (hGal-3) and on human Gal-1 (hGal-1) were 53 nM and 7580 nM, respectively.

For `CC(=O)O[C@@H]1[C@@H](n2cc(-c3cc(F)c(C)c(F)c3)nn2)[C@@H](O)[C@@H](CO)O[C@H]1C(=O)N(Cc1ccnn1C)[C@H]1CCCC[C@@H]1O` [Example 51, (2R,3R,4S,5R,6R)-4-(4-(3,5-difluoro-4-methylphenyl)-1H-1,2,3-triazol-1-yl)-5-hydroxy-2-(((1S,2S)-2-hydroxycyclohexyl)((1-methyl-1H-pyrazol-5-yl)methyl)carbamoyl)-6-(hydroxymethyl)tetrahydro-2H-pyran-3-yl acetate], the concentration for half-maximal inhibition (IC50) at human Gal-3 (hGal-3) came to 58 nM; at human Gal-1 (hGal-1) it was 11200 nM.

`CC(=O)O[C@@H]1[C@@H](n2cc(-c3cccc(F)c3)nn2)[C@@H](O)[C@@H](CO)O[C@H]1C(=O)N(Cc1ccnn1C)[C@H]1CCCC[C@@H]1O` [Example 52, (2R,3R,4S,5R,6R)-4-(4-(3-fluorophenyl)-1H-1,2,3-triazol-1-yl)-5-hydroxy-2-(((1S,2S)-2-hydroxycyclohexyl)((1-methyl-1H-pyrazol-5-yl)methyl)carbamoyl)-6-(hydroxymethyl)tetrahydro-2H-pyran-3-yl acetate]: the concentration for half-maximal inhibition (IC50) was 191 nM at human Gal-3 (hGal-3) and 1600 nM on human Gal-1 (hGal-1).

Turning to `CO[C@@H]1[C@@H](n2cc(-c3cc(F)c(F)c(F)c3)nn2)[C@@H](O)[C@@H](CO)O[C@H]1C(=O)N(Cc1cccc(Cl)c1)[C@H]1CCCC[C@@H]1O` [Example 53, (2R,3R,4S,5R,6R)-N-(3-chlorobenzyl)-5-hydroxy-N-((1S,2S)-2-hydroxycyclohexyl)-6-(hydroxymethyl)-3-methoxy-4-(4-(3,4,5-trifluorophenyl)-1H-1,2,3-triazol-1-yl)tetrahydro-2H-pyran-2-carboxamide], the half-maximal inhibitory concentration (IC50) at human Gal-3 (hGal-3) is 868 nM; at human Gal-1 (hGal-1), 10800 nM.

For the compound `CO[C@@H]1[C@@H](n2cc(-c3cc(F)c(F)c(F)c3)nn2)[C@@H](O)[C@@H](CO)O[C@H]1C(=O)N(Cc1cccc(Cl)c1)[C@H]1CCCC[C@@H]1O` [Example 54], the IC50 at human Gal-3 (hGal-3) amounted to 20 nM; at human Gal-1 (hGal-1) it was 2660 nM.

For `CC(=O)O[C@@H]1[C@@H](n2cc(-c3cc(F)c(F)c(F)c3)nn2)[C@@H](O)[C@@H](CO)O[C@H]1C(=O)N(Cc1ccccc1C(F)(F)F)[C@H]1CCCC[C@@H]1O` [Example 55, (2R,3R,4S,5R,6R)-5-hydroxy-2-(((1S,2S)-2-hydroxycyclohexyl)(2-(trifluoromethyl)benzyl)carbamoyl)-6-(hydroxymethyl)-4-(4-(3,4,5-trifluorophenyl)-1H-1,2,3-triazol-1-yl)tetrahydro-2H-pyran-3-yl acetate], the values for the IC50 on human Gal-3 (hGal-3) and on human Gal-1 (hGal-1) were 31 nM and 828 nM, respectively.

Regarding `CO[C@@H]1[C@@H](n2cc(-c3cc(F)c(F)c(F)c3)nn2)[C@@H](O)[C@@H](CO)O[C@H]1C(=O)N(c1ccc(F)c(F)c1)[C@H]1CCCC[C@@H]1O` [Example 56], the figures for the IC50 at human Gal-3 (hGal-3) and on human Gal-1 (hGal-1) were 42 nM and 417 nM, respectively.

On to `CO[C@@H]1[C@@H](n2cc(-c3cc(F)c(F)c(F)c3)nn2)[C@@H](O)[C@@H](CO)O[C@H]1C(=O)N(c1cccc(Cl)c1)[C@H]1CCCC[C@@H]1O` [Example 58], for which the 50% inhibitory concentration (IC50) was found to be 21 nM on human Gal-3 (hGal-3) and 729 nM at human Gal-1 (hGal-1).

Take `CO[C@@H]1[C@@H](n2cc(-c3cc(F)c(F)c(F)c3)nn2)[C@@H](O)[C@@H](CO)O[C@H]1C(=O)N(c1cc(Cl)cc(Cl)c1)[C@H]1CCCC[C@@H]1O` [Example 60]: the values for the concentration for half-maximal inhibition (IC50) at human Gal-3 (hGal-3) and at human Gal-1 (hGal-1) were 16 nM and 665 nM, respectively.

As for `CC(=O)O[C@@H]1[C@@H](n2cc(-c3cccc(F)c3)nn2)[C@@H](O)[C@@H](CO)O[C@H]1C(=O)N(Cc1ccccc1C(F)(F)F)[C@H]1CCCC[C@@H]1O` [Example 62, (2R,3R,4S,5R,6R)-4-(4-(3-fluorophenyl)-1H-1,2,3-triazol-1-yl)-5-hydroxy-2-(((1S,2S)-2-hydroxycyclohexyl)(2-(trifluoromethyl)benzyl)carbamoyl)-6-(hydroxymethyl)tetrahydro-2H-pyran-3-yl acetate], the half-maximal inhibitory concentration (IC50) is 141 nM on human Gal-3 (hGal-3) and 939 nM at human Gal-1 (hGal-1).

For the compound `CC(=O)O[C@@H]1[C@@H](n2cc(-c3cc(F)cc(F)c3)nn2)[C@@H](O)[C@@H](CO)O[C@H]1C(=O)N(Cc1ccccc1C(F)(F)F)[C@H]1CCCC[C@@H]1O` [Example 63, (2R,3R,4S,5R,6R)-4-(4-(3,5-difluorophenyl)-1H-1,2,3-triazol-1-yl)-5-hydroxy-2-(((1S,2S)-2-hydroxycyclohexyl)(2-(trifluoromethyl)benzyl)carbamoyl)-6-(hydroxymethyl)tetrahydro-2H-pyran-3-yl acetate], the IC50 at human Gal-3 (hGal-3) came to 138 nM; on human Gal-1 (hGal-1) it was 1020 nM.

`COc1cnc2ccc(F)c(CN(C(=O)[C@@H]3O[C@H](CO)[C@H](O)[C@H](n4cc(-c5cc(F)c(F)c(F)c5)nn4)[C@H]3OC)[C@H]3CCCC[C@@H]3O)c2n1` [Example 64, (2R,3R,4S,5R,6R)-N-((6-fluoro-3-methoxyquinoxalin-5-yl)methyl)-5-hydroxy-N-((1S,2S)-2-hydroxycyclohexyl)-6-(hydroxymethyl)-3-methoxy-4-(4-(3,4,5-trifluorophenyl)-1H-1,2,3-triazol-1-yl)tetrahydro-2H-pyran-2-carboxamide]: the IC50 amounted to 123 nM on human Gal-3 (hGal-3) and 980 nM on human Gal-1 (hGal-1).
